Read-outs that look alike come from different tables or passages of the source.
Assays:
[1] = target: yeast α-glucosidase from Saccharomyces cervisiae (Saccharomyces cerevisiae, UniProt P53341); test: biochemical
Description: All the tests and analyses were performed in triplicates following a modified published protocol described in our previous study. […] 2.5, 5, 10, 25 and 50 µM. α-Glucosidase solution (0.48 u/mL, 20 µL), phosphate buffer (100 mM, pH 6.8; 30 µL) and the test sample (20 µL) as well as the reference standard were added in the designated wells, and the reaction mixtures were incubated at 37 °C for 10 min. 2 mM p-nitrophenyl-α-D-glucopyranoside (20 µL) was added to each of the wells containing reaction mixture to initiate the reaction. The reaction was pre-incubated for 30 min at 37 °C. The reaction was stopped by the addition of 20 μL of a solution of sodium carbonate (200 mM) to each well. Five absorbance readings were recorded for each triplicate run at a wavelength of 400 nm using Varioskan flash microplate spectrophotometer (Thermo Scientific, Waltham, MA, USA). The average values obtained from the readings were used to determine the IC50 and standard deviation values. The values were calculated by the nonlinear regression analysis and expressed as the mean SD of three distinct experiments using Graph Pad Prism software.

[2] = NO free radical scavenging assay (sodium nitroprusside, Griess reaction); details: mean ± SD of three independent experiments
Source text: (§1) Reduced or lack of antioxidant activity of these compounds was attributed to the presence of intramolecular N-H···O hydrogen bond between amino and kenone group of the 2-aminochalcones and their sulfanamido derivatives which is envisaged to deactivate the unsaturated moiety. […] A combination of the styryl and the electrophilic α,β-unsaturated carbonyl arms on the same molecular framework encouraged us to evaluate the test compounds for antioxidant properties through the DPPH and NO radical scavenging assays. […] Compound 2a has potential to inhibit both α-glucosidase and α-amylase activities, and to reduce oxidative stress. […] The observed free radical scavenging activities of these molecular hybrids is presumably due to the presence of styryl arm on the intramolecularly hydrogen bonded 2-aminochalcone scaffold.
Nitric oxide was generated from sodium nitroprusside and measured by Griess’ reaction following the literature method. The experiment was done in triplicate with ascorbic acid (vitamin C) used as a positive control for the assay. In a 96 well plate, 5 μL of the test compounds (0.1, 0.5, 1.0, 5.0 and 10.0 μM in methanol) or the positive control were mixed with 5 μL of 10 mM sodium nitroprusside prepared in phosphate buffered saline (pH = 7.4) and allowed to incubate at room temperature for 2.5 h. Afterwards, 30 μL of the Griess reagent (a mixture of 0.2% N-(1-naphthyl)ethylenediamine dihydrochloride and 2% sulfanilamide in […]) was added to each well and the mixtures were and allowed to stand at room temperature for 30 min. Five absorbance readings were recorded at 546 nm using Varioskan flash microplate spectrophotometer reader.

α-amylase = test: α-Amylase inhibition assay (α-Amylase Inhibitor Screening Kit); assay type: biochemical; details: mean ± SD of three independent experiments
Description: The α-amylase assay was performed in triplicate using a 96-well plate following the procedure by the manufacturer as outlined in the α-Amylase Inhibitor Screening Kit (Catalog No. K482; Bio Vision). […] For inhibitor control (10 µL of α-amylase inhibitor and 40 µL of assay buffer were added to 3 wells), enzyme control (50 µL of assay buffer was added to three wells) and 50 µL of the test compounds were added into the remaining wells. A solution of α-amylase enzyme (50 µL) prepared by adding 490 µL of assay buffer to 10 µL of α-amylase enzyme was added to each of the wells containing the reaction mixture to initiate the reaction. The plate was incubated for 10 min at room temperature in the dark. Five different absorbance readings were recorded for each triplicate run at a wavelength of 405 nm using Varioskan flash microplate spectrophotometer (Thermo Scientific, Waltham, MA, USA). The IC50 and SD values were calculated using graph pad prism.

[3] = DPPH radical scavenging assay; details: free radical scavenging; mean ± SD of three independent experiments
Source text: as §1
The antioxidant activities of the test compounds against ascorbic acid (Sigma Aldrich, Saint Louis, Missouri, USA) as a positive control were evaluated using 2,2-diphenyl-1-picrylhydrazyl (DPPH) radical scavenging assay developed by Zhu et al. as described in our previous study. Triplicate solutions (20 µL) of the test compounds and ascorbic acid in DMSO (final concentrations: 5, 10, 25, 50, and 100 µM) were added into each designated well of a 96-well plate. A solution of 0.20 mM DPPH (20 µL) in methanol was added to each well, and the 96-well plate was wrapped with aluminum foil and incubated in the dark for 45 min. Five absorbance readings were recorded at 512 nm using Varioskan flash microplate spectrophotometer reader. The average values obtained from the absorbance readings were used to determine the IC50 and standard deviation values.

Vero cells = test: MTT cytotoxicity assay on Vero cells; assay type: cell-based; details: monkey, 24 h treatment
Description: (§2) Metabolic diseases such as diabetes require a stable long-term therapy accompanied by well tolerated and low toxicity, and this encouraged us to evaluate the safety profile of 2a and 3e as potential antidiabetic agents at least in vitro. The compounds were evaluated for cytotoxicity against the normal monkey kidney cells (Vero cells) and the adenocarcinomic human epithelial (A549) cell line using the 3-(4,5-dimethylthiazol-2-yl)-2, 5-diphenyltetrazolium (MTT) assay.
The cytotoxicity activity of compounds 2a and 3e was evaluated against doxorubicin (positive control) using the 3-(4,5-dimethylthiazol-2-yl)-2,5-diphenyltetrazolium bromide (MTT) assay following a modification of a literature method by Mosmann. The Vero and A549 cells were maintained in Dulbecco′s modified Eagle′s medium (DMEM; Gibco) supplemented with 10% Fetal bovine serum (FBS) and 1% penicillin/streptomycin in culture flasks and incubated at 37 °C in 5% CO2. When the cells reached 85% confluency, they were detached using 2% trypsin. Cell count was performed using a handheld automated cell counter (Scapter 3.0™, Merck). The cells were seeded at 1 × 10^5 cells/well and incubated overnight to allow cell attachment. […] Five absorbance readings were recorded at 517 nm using Varioskan flash microplate spectrophotometer reader.

α-glucosidase = α-glucosidase (Saccharomyces cerevisiae, UniProt P53341); test: Enzyme kinetic studies (Lineweaver-Burk and Dixon plots); assay type: biochemical; details: for Ki / mode of inhibition: α-glucosidase; for Ki: PNPG substrate, read-out: Ki (Dixon plot); for mode of inhibition: Lineweaver-Burk and Dixon plots
Chain of α-glucosidase (P53341 whole entry): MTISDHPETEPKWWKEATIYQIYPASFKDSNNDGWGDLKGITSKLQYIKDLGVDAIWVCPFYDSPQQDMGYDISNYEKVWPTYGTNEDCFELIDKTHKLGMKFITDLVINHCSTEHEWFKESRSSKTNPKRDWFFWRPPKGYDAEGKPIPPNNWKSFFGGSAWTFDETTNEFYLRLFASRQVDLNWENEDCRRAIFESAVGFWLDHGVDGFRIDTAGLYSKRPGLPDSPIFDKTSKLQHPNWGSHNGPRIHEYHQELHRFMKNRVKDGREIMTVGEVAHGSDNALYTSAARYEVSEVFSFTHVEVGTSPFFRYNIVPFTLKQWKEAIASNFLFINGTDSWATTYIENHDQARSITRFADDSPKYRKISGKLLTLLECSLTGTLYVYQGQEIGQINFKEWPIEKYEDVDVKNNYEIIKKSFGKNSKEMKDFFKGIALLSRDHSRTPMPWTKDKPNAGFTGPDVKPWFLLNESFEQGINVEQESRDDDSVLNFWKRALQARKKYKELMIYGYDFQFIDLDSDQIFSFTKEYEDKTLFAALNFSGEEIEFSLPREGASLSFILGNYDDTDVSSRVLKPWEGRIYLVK
Description: The Lineweaver-Burk plot of 1/V versus 1/[S] in the presence of different concentrations of compound 2a in the case of α-glucosidase gave a series of straight lines that intersect on the x-axis (Figure 3a). […] The compound probably binds to the active site and other allosteric sites on the enzyme.
Enzyme kinetics studies were performed on compounds 2a and 3e with increasing inhibitor and substrate concentrations. In the experimental procedure, inhibitors concentrations of 0.1, 0.5, 1, 2.5 µM, and final substrate concentration were 0.1, 0.5, 1 and 5 mM were used. 5 μL of the inhibitor and 2 μL of the enzyme (α-glucosidase) were added to each well of the 96-well plate. The reaction was incubated for 20 min at room temperature. 18 μL of the substrate, PNPG (4-nitrophenyl α-D-glucopyranoside) was then added and absorbance readings recorded after every 2 min at wavelength of 400 nm using a Varioskan flash microplate spectrophotometer reader. Lineweaver-Burk plot (the inverse of velocity (1/v) against the inverse of the substrate concentration (1/[S]) were used to determining the type of inhibition, while the inhibitor constant was obtained from the Dixon plot (the inverse of velocity (1/v) against concentration of inhibitor at each substrate concentration)

A549 cells = test: MTT cytotoxicity assay on A549 cells; assay type: cell-based, human; details: 24 h treatment; for IC50 at 24 h: human, A549 cells
Description: as §2
The cytotoxicity activity of compounds 2a and 3e was evaluated against doxorubicin (positive control) using the 3-(4,5-dimethylthiazol-2-yl)-2,5-diphenyltetrazolium bromide (MTT) assay following a modification of a literature method by Mosmann. The Vero and A549 cells were maintained in Dulbecco′s modified Eagle′s medium (DMEM; Gibco) supplemented with 10% Fetal bovine serum (FBS) and 1% penicillin/streptomycin in culture flasks and incubated at 37 °C in 5% CO2. When the cells reached 85% confluency, they were detached using 2% trypsin. Cell count was performed using a handheld automated cell counter (Scapter 3.0™, Merck). The cells were seeded at 1 × 10^5 cells/well and incubated overnight to allow cell attachment. After 24 h, the cells were treated with different concentrations (0, 2.5, 5, 10, 25, 50, 100 µM) of the test compounds and the reference stand. The cells were incubated for 24 h followed by treatment with 20 µL of MTT solution (5 mg/mL). After 4 h incubation period, DMSO (100 µL) was added to each well to dissolve the formazan crystals. Five absorbance readings were recorded at 517 nm using Varioskan flash microplate spectrophotometer reader.

[4] = mean ± SD of three independent experiments, pH 6.8, 37 °C, read-out: IC50 (SD) α-Glucosidase

Chain of yeast α-glucosidase from Saccharomyces cervisiae (P53341 whole entry): as above

With `Nc1ccc(/C=C/c2ccc(Cl)cc2)cc1C(=O)/C=C/c1cccc(F)c1` [Compound 3c, (E)-1-(2-Amino-5-((E)-4-Chlorostyryl)phenyl)-3-(3-fluorophenyl)prop-2-en-1-one] the IC50 [1] was 12.6 ± 0.31 µM, the melting point was 187 to 188 °C and the IC50 [2] was 10.6 ± 0.3 µM. It also gave an IC50 (α-amylase) of 2.4 ± 0.1 µM and an IC50 [3] of 15.3 ± 0.1 µM.
For `Nc1ccc(/C=C/c2ccccc2)cc1C(=O)/C=C/c1ccc(F)cc1` [Compound 3e, (E)-1-(2-Amino-5-((E)-styryl)phenyl)-3-(4-fluorophenyl)prop-2-en-1-one], the IC50 [1, 4] was 5.1 ± 0.61 µM, the IC50 at 24 h (Vero cells) was 220 ± 0.57 µM and the melting point was 161 to 162 °C. For the same compound, the IC50 [2] was 20.5 ± 0.46 µM, the “velocity of the reaction (Vmax)” value (α-glucosidase; α-glucosidase in the presence of increasing inhibitor concentrations, Lineweaver-Burk plot) was 0.01 ± 0.002 µM/min and the Ki (α-glucosidase) was 1.48 ± 0.05 µM. For the same compound, the mode of inhibition (α-glucosidase) was “mixed mode of inhibition”, the IC50 at 24 h (A549 cells) was 204 ± 0.55 µM and the IC50 (α-amylase) was 1.6 ± 0.52 µM. For the same compound, the IC50 [3] was 4.2 ± 0.43 µM.
Compound `CC(=O)c1cc(/C=C/c2ccccc2)ccc1N` [Compound 2a, (E)-1-(2-Amino-5-styrylphenyl)ethan-1-one] has an IC50 [1, 4] of 5.4 ± 0.1 µM, an IC50 at 24 h (Vero cells) of 164.6 ± 0.59 µM and a melting point of 119 to 120 °C. The IC50 [2] was 8.3 ± 0.22 µM, the Ki (α-glucosidase) was 0.3 ± 0.04 µM and the mode of inhibition (α-glucosidase) was “non-competitive mode of inhibition”. For the same compound, the IC50 at 24 h (A549 cells) was 65.7 ± 0.14 µM, the IC50 (α-amylase) was 2.3 ± 0.2 µM and the IC50 [3] was 7.1 ± 0.32 µM.
`Nc1ccc(/C=C/c2ccc(F)cc2)cc1C(=O)/C=C/c1cccc(F)c1` [Compound 3b, (E)-1-(2-Amino-5-((E)-4-fluorostyryl)phenyl)-3-(3-fluorophenyl)prop-2-en-1-one] gave an IC50 [1, 4] of 6.1 ± 0.24 µM, a melting point of 175 to 177 °C and an IC50 [2] of 5.3 ± 0.34 µM. It also gave an IC50 (α-amylase) of 15.6 ± 0.6 µM and an IC50 [3] of 6.6 ± 0.33 µM.
With `COc1cccc2c1C(=O)c1c(O)c3c(c(O)c1C2=O)C[C@@](O)(C(=O)CO)C[C@@H]3O[C@H]1C[C@H](N)[C@H](O)[C@H](C)O1` [Doxorubicin, reference compound] the IC50 (A549 cells) was 1.14 ± 0.23 µM.
For `COc1ccc(/C=C/c2ccc(N)c(C(=O)/C=C/c3ccc(F)cc3)c2)cc1` [Compound 3h, (E)-1-(2-Amino-5-((E)-4-methoxystyryl)phenyl)-3-(4-fluorophenyl)prop-2-en-1-one], the IC50 [1] was 10.5 ± 0.18 µM, the melting point was 153 to 154 °C and the IC50 [2] was 20.2 ± 0.23 µM. For the same compound, the IC50 (α-amylase) was 7.6 ± 0.2 µM and the IC50 [3] was 25.8 ± 0.43 µM.
For `Nc1ccc(/C=C/c2ccccc2)cc1C(=O)/C=C/c1cccc(F)c1` [Compound 3a, (E)-1-(2-Amino-5-((E)-styryl)phenyl)-3-(3-fluorophenyl)prop-2-en-1-one], the IC50 [1] was 17.8 ± 0.32 µM, the melting point was 129 to 130 °C and the IC50 [2] was 18.9 ± 0.54 µM. The IC50 (α-amylase) was 10.7 ± 0.21 µM and the IC50 [3] was 21.6 ± 0.32 µM.
For `Nc1ccc(/C=C/c2ccc(F)cc2)cc1C(=O)/C=C/c1ccc(F)cc1` [Compound 3f, (E)-1-(2-Amino-5-((E)-4-fluorostyryl)phenyl)-3-(4-fluorophenyl)prop-2-en-1-one], the IC50 [1, 4] was 6.9 ± 0.37 µM, the IC50 [2] was 8.8 ± 0.33 µM and the IC50 (α-amylase) was 9.5 ± 0.41 µM. It also gave an IC50 [3] of 18.5 ± 0.37 µM.
Work on `Nc1ccc(/C=C/c2ccc(Cl)cc2)cc1C(=O)/C=C/c1ccc(F)cc1` [Compound 3g, (E)-1-(2-Amino-5-((E)-4-chlorostyryl)phenyl)-3-(4-fluorophenyl)prop-2-en-1-one] yielded an IC50 [1] of 19.2 ± 0.47 µM, a melting point of 197 to 198 °C and an IC50 [2] of 15.1 ± 0.19 µM. The IC50 (α-amylase) was 1.7 ± 0.25 µM and the IC50 [3] was 5.2 ± 0.53 µM.
With `COc1ccc(/C=C/c2ccc(N)c(C(C)=O)c2)cc1` [Compound 2d, (E)-1-(2-Amino-5-(4-methoxystyryl)phenyl)ethan-1-one] the IC50 [1] was 30.7 ± 0.42 µM, the melting point was 139 to 140 °C and the IC50 [2] was 25.9 ± 0.61 µM. For the same compound, the IC50 (α-amylase) was 9 ± 0.31 µM and the IC50 [3] was 9.3 ± 0.23 µM.
With `COc1ccc(/C=C/c2ccc(N)c(C(=O)/C=C/c3cccc(F)c3)c2)cc1` [Compound 3d, (E)-1-(2-Amino-5-((E)-4-methoxystyryl)phenyl)-3-(3-fluorophenyl)prop-2-en-1-one] the IC50 [1, 4] was 9.4 ± 0.5 µM, the IC50 [2] was 7.9 ± 0.28 µM and the IC50 (α-amylase) was 7 ± 0.45 µM. For the same compound, the IC50 [3] was 3.9 ± 0.21 µM.
In the case of `O=C1O[C@H]([C@@H](O)CO)C(O)=C1O` [Ascorbic acid, reference compound], the IC50 [2] is reported as 6.14 ± 0.21 µM and the IC50 [3] is reported as 4.2 ± 0.27 µM.
In the case of `CC(=O)c1cc(/C=C/c2ccc(F)cc2)ccc1N` [Compound 2b, (E)-1-(2-Amino-5-(4-fluorostyryl)phenyl)ethan-1-one], the IC50 [1] is reported as 12.7 ± 0.16 µM, the melting point is reported as 149 to 150 °C and the IC50 [2] is reported as 7.2 ± 0.4 µM. It also gave an IC50 (α-amylase) of 19.3 ± 0.42 µM and an IC50 [3] of 15.8 ± 0.21 µM.
Compound `CC(=O)c1cc(/C=C/c2ccc(Cl)cc2)ccc1N` [Compound 2c, (E)-1-(2-Amino-5-(4-chlorostyryl)phenyl)ethan-1-one] has an IC50 [1] of 15.9 ± 0.34 µM, a melting point of 137 to 138 °C and an IC50 [2] of 11.6 ± 0.43 µM. It also gave an IC50 (α-amylase) of 5.8 ± 0.51 µM and an IC50 [3] of 10.4 ± 0.15 µM.
